SMILES strings stand for the structures.

The test system of data set [1] is MV4-11 cells. Kind of data set: MV4-11 CellTiter Glo cell viability/proliferation assay (Example 2). Format: cell-based. As to conditions: Homo sapiens, procedure of Example 2, read-out: IC50, inhibition of proliferation in MV4-11 cells. As to the method: The CellTiter Glo Luminescent cell viability assay is a highly sensitive homogenous assay to determine the number of viable cells in culture based on quantitation of ATP levels in metabolically active cells. Addition of CTG reagent results in cell lysis and generation of a luminescent signal proportional to the amount of ATP present. The amount of ATP is proportional to the number of cells present. The luminescence is measured using a multilabel reader capable of measuring luminescence. An increase or decrease in cell numbers results in a concomitant change in luminescene level, indicating the effect of the test material on cellular proliferation.
CellTiter-Glo buffer was thawed and equilibrated to room temperature. Lyophilized CellTiter-Glo substrate was brought to room temperature. CTG reagent is prepared by mixing the CellTiter-Glo buffer (Promega Cat #G7572) into an amber bottle containing CellTiter-Glo substrate to reconstitute the lyophilized enzyme/substrate mixture. Both Buffer and the lyophilized substrate are supplied with the kit.
Add 1% Penicillin Streptomycin and 10% FBS to commercially available liquid IMDM (Iscove's Modified Dulbecco's Medium, Invitrogen Cat #12440046).
1. MV4-11 cells were counted and re-suspended to a density of 0.1×10^6 cells/ml in complete IMDM medium. 95 μL of this cell suspension was added per well of a 96-well plate (black plate with clear bottom) to seed ˜0.1×10^5 cells per well. The plates were incubated at 37° C. under a humidified atmosphere of 5% CO2 for ˜2 hours before compound addition. 2. Test compounds were dissolved in 100% DMSO to generate a 2/6/10/20 mM stock solution. A 200× concentration of the required final concentrations was prepared in DMSO. 10 μL of each concentration (200×) was then diluted in 90 μL of serum-free IMDM to prepare an intermediate concentration of 20× in medium. The DMSO concentration in this step was 10% (Intermediate dilution). 5 μL of each intermediate dilution was then added in triplicates to cells previously seeded in 96-well plate. The final DMSO concentration was 0.5% in the experimental wells. Cells treated with 0.5% DMSO served as a positive control. 100 μL of complete IMDM medium served as media blank for data analysis. 200 μL of 1×PBS was added in all corner wells of the assay plate to avoid evaporation of media in experimental wells. Plates were then incubated for 72 hours in an incubator with 5% CO2 at 37° C. 3. To terminate the assay, 50 μL of CTG reagent was added to each well and the plate was incubated at room temperature for 15 minutes on a shaker. The plate was read using the luminescence mode on a multilabel reader capable of measuring luminescence. The luminescence values were plotted against respective concentrations of the test item using GraphPad Prism to calculate the IC50 value for the test item. Percent Inhibition is Calculated as Follows: […]
Positive control wells contained cells, IMDM medium and 0.5% DMSO. Blank control wells contained IMDM medium alone.

Data set [2] has as its system MV4-11 cells. The experiment in a line: AML xenograft model MV4-11, in vivo tumor growth inhibition. On the procedure: ND-2158 at 100 mpk was used as a control.
MV4-11 cells were grown in Iscove's Modified Dulbecco's medium supplemented with 10% FBS and 1% penicillin streptomycin. To establish tumors, 15×10^6 MV4-11 cells were injected subcutaneously in 200 μl of 1:1 HBSS and ECM gel into the right flank of the athymic nude mice. Animals were randomized based on tumor volumes. […] Treatments were initiated when the average tumor volume sizes were 333 mm^3. Tumor volumes were measured three times a week and body weights were monitored daily.

In a further data set the test system is MV4-11 cell line. The experiment in a line: Anti-proliferative activity, MV4-11 cell line (Example 5, CellTiter Glo). The note with it: Homo sapiens, Example 5 procedure, 5,000 cells/well. Format: cell-based. As to the method:
(§1) The same procedure was used for both the MV4-11 cells and MOLM-13 cells. Each cell line has an ITD mutation in the FLT-3 kinase.
(§2) The cells were grown to ˜80% confluence, split in half and grown overnight. The cells were seeded at a density of 5,000 cells/well in a volume of 150 μL into a 96-well black plate in all wells except columns 1 and 12 and rows A and H. They were incubated overnight in 10% serum and HBSS was added to wells on the periphery. In a deep 96-well plate, 1000 μL of 10% FBS was added into wells B2 and D2. 750 μL of 10% FBS, 1% DMSO medium per well was added in row B except well B2. 5 μL of 20 mM compound was added into well B2. 250 μL was transferred from column 2 to column 3 and mixed. The process was repeated until column G to give a 1:4 dilution. 15 μL of compound mixture was added to each well of the cell plate (135 μL volume).

The subject of another data set is MOLM-13 cell line. Kind of data set: Anti-proliferative activity, MOLM-13 cell line (Example 5, CellTiter Glo). Format: cell-based. As to conditions: Homo sapiens, Example 5 procedure, 5,000 cells/well. As to the method:
as §1, §2

The test system of a further data set is MOLM-14 FLT3-ITD tumors. The experiment in a line: MOLM-14 FLT3-ITD mouse xenograft tumor model. It counts as in vivo, athymic nude mice. As to conditions: 100 mg/kg orally once-daily, after 12 or 14 days of dosing. An excerpt: (§3) Compound A efficacy was compared to mice administered vehicle.
The test system of data set [3] is MOLM-14 FLT3-ITD/F691L tumors. Kind of data set: MOLM-14 FLT3-ITD/F691L mouse xenograft tumor model. The note with it: 100 mg/kg orally once-daily, after 12 or 14 days of dosing. It counts as in vivo, athymic nude mice.
Excerpt: as §3

Data set [4] relates to MOLM-14 FLT3-ITD/D835Y tumors. Kind of data set: MOLM-14 FLT3-ITD/D835Y mouse xenograft tumor model. It counts as in vivo, athymic nude mice. As to conditions: 100 mg/kg orally once-daily, after 12 or 14 days of dosing.
Excerpt: as §3

Data set [5] concerns MOLM-14 cell line (FLT3-ITD). The experiment in a line: Cell viability assay (CellTiter-Glo, 72 h), parental MOLM-14. It counts as cell-based. The note with it: Homo sapiens, mean of at least 3 assays. As to the method: (§4) The parental MOLM-14 cell line contained a FLT3-ITD mutation. Quizartinib-resistant MOLM-14 derivative cell lines MOLM-14 FLT3-ITD/D835Y and MOLM-14 FLT3-ITD/F691L contained a double FLT3 mutation (the original ITD mutation and a secondary mutation within the kinase domain).
(§5) All cells lines were cultured in RPMI 1640+GlutaMAX supplemented with 1× Pen-Strep and 10% FBS (referred to as media hereafter). Cells were cultured in 75 cm^2 or 225 cm^2 tissue culture flasks in a 37° C. humidified tissue culture incubator with 5% CO2. Cell densities were maintained between 0.5-2.0×10^6 cells/mL.
(§6) Two days before compound treatment, cells were pelleted and resuspended in fresh medium. The day of dosing, cells were counted and stained with trypan blue to determine cell viability. 5,000 viable cells were transferred in a volume of 90 μL or 135 μL per well to all wells of a 96-well tissue culture plate and returned to the tissue culture incubator. […]
(§7) After 72 h incubation, cell viability was assessed using the CellTiter-Glo Luminescent Cell Viability Assay (2.0) according to the vendor's instructions. […] Luminescence readings were measured using a TopCount384 instrument.
(§8) The percent inhibition of the compound treated samples was determined relative to the DMSO-treated cell control samples. […] The mean EC50 values from at least 3 independent viability assays performed on different days were determined.

In a further data set the test system is MOLM-14 FLT3-ITD/D835Y. Kind of data set: Cell viability assay (CellTiter-Glo, 72 h), MOLM-14 FLT3-ITD/D835Y. Format: cell-based. The note with it: Homo sapiens, mean of at least 3 assays. As to the method: as §4, §5, §6, §7, §8
The next data set has as its system MOLM-14 FLT3-ITD/F691L. The experiment in a line: Cell viability assay (CellTiter-Glo, 72 h), MOLM-14 FLT3-ITD/F691L. It counts as cell-based. The note with it: Homo sapiens, mean of at least 3 assays. As to the method: as §4, §5, §6, §7, §8

Consider `Cc1cc(-c2nc(C(=O)Nc3cc4oc(N5CCOCC5)nc4nc3N3CC[C@@H](O)C3)co2)ccn1` [Compound A], for which the IC50 with MV4-11 cells [1] came to 31 nM; in the data set with MV4-11 cell line, 70 nM; in the data set with MOLM-13 cell line, 190 nM. In addition, in the data set with MV4-11 cells [2] (12.5 mg/kg orally once daily, 21 days), the tumor growth inhibition is 92%. The tumor response entry is “partial tumor regression” in the data set on MV4-11 cells [2] (25 mg/kg orally once daily, 21 days); “partial tumor regression” with MV4-11 cells [2] (50 mg/kg orally once daily, 21 days); “Tumor growth stasis” in the data set with MV4-11 cells [2] (12.5 mpk, after 21 days of treatment). For the same compound, the “tolerability (clinical signs, gross pathological changes)” value in the data set with MV4-11 cells [2] (12.5, 25, and 50 mg/kg orally once daily, 21 days) is “well tolerated without any treatment related clinical signs and gross pathological changes”. Moreover, in the data set with MV4-11 cells [2] (all treatment groups, 21 days, FIG. 4), the body weight result is reported as “No body weight reduction was observed”. Besides, the “percent tumor growth inhibition (% TGI)” value came out at 90% with MOLM-14 FLT3-ITD tumors, 73% in data set [3] and 98% in data set [4]. The EC50 in data set [5] worked out at 58 nM; in the data set with MOLM-14 FLT3-ITD/D835Y, 108 nM; in the data set on MOLM-14 FLT3-ITD/F691L it was 2490 nM.
